Patent US11028075B2, “Therapeutic compounds and methods of use thereof” (GENENTECH, INC., priority 2018, dated 2021)
Where a name gives a salt, the structure may show the parent alone.

What was measured:
hNav1.7 [1] = target: T1, hNav1.7 (Homo sapiens (Human), UniProt Q15858); test: Electrophysiological assay (EP), voltage clamp on Syncropatch 384PE, CHO cells stably expressing Nav1.7; assay type: cell-based; conditions: holding potential −50 mV, 7.5 min compound incubation, read-out: EP_SP hNav1.7 EVO IC50
In short: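 Whole-cell automated patch clamp was run on CHO cells stably expressing human Nav1.7 cDNA, with internal solution CsCl/EGTA pH 7.2, external solution 80 mM NaCl pH 7.4, and 0.1% Pluronic F-127. From a −50 mV holding potential: −10 mV for 10 ms, −150 mV for 20 ms, then −10 mV for 10 ms, where current was measured. Inhibition was taken after 7.5 min compound incubation, with TTX added for full block.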
Target sequence in this assay (Q15858 other isoform, or with tags, fused parts or gaps): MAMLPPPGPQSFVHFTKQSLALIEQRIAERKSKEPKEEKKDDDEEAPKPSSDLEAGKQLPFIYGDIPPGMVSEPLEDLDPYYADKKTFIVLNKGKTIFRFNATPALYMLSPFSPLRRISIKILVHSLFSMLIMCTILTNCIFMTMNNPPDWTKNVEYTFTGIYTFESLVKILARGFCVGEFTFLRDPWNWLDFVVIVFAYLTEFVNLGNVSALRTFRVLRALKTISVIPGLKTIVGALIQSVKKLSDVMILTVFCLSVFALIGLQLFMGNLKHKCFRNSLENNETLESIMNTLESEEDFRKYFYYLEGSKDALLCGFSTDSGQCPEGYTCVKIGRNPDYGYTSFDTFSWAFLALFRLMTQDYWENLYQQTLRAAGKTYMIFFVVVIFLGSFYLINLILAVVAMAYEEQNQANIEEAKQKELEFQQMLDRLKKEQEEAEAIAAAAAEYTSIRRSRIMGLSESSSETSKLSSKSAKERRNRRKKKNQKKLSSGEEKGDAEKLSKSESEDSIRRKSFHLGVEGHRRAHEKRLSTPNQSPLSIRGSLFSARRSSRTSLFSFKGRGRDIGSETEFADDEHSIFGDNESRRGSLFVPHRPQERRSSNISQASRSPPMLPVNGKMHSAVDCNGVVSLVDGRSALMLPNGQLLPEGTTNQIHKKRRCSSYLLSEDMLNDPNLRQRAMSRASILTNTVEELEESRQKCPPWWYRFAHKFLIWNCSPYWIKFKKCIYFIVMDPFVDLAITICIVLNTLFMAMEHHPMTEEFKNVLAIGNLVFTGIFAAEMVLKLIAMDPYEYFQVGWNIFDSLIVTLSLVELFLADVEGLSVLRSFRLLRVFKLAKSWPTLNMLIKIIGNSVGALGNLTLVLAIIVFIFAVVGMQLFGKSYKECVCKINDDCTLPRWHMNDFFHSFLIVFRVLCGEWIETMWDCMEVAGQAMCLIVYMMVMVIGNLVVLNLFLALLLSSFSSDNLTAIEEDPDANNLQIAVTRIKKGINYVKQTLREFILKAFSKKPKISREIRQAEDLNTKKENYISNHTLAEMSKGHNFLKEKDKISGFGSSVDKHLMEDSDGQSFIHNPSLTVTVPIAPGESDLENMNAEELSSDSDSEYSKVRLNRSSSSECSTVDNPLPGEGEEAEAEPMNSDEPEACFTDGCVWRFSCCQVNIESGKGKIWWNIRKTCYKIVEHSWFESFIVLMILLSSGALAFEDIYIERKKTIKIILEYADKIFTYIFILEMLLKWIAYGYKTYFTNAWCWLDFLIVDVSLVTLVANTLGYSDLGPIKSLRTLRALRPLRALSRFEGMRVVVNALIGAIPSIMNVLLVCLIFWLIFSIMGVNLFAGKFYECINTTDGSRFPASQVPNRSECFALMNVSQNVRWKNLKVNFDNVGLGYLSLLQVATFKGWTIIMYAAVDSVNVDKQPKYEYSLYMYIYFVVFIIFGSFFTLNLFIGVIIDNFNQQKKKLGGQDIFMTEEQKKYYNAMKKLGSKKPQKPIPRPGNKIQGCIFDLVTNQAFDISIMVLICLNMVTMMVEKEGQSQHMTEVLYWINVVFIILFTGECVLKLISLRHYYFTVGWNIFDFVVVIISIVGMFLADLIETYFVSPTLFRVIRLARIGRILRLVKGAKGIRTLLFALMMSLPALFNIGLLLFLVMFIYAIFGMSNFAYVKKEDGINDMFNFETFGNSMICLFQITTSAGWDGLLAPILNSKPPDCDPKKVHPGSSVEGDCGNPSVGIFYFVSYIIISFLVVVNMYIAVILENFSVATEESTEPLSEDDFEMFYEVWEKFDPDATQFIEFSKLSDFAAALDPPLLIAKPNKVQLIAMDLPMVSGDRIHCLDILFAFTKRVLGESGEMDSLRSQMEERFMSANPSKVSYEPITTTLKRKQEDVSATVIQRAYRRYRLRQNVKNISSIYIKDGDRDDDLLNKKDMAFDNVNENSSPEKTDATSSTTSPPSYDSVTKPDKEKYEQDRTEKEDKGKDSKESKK

hNav1.7 [2] = target: T1, hNav1.7; test: Tritiated compound binding to membranes from cells heterologously expressing hNav1.7 and the β1 subunit (Nav1.7 LBA); conditions: competitive binding vs [3H]compound, membranes with hNav1.7 and β1 subunit; read-out: Nav1.7 LBA EVO IC50
In short: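 Membranes from cells expressing hNav1.7 with β1 were incubated at room temperature with a tritiated competitive Nav1.7 inhibitor plus test compound in 100 mM NaCl, 20 mM Tris pH 7.4, 0.01% BSA; nonspecific binding was set with 1 μM unlabeled compound. Incubation was 18 h with […] radioligand, or 3 h with […]. Bound ligand was filtered and counted, and IC50 came from a 4-parameter fit.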
Target sequence in this assay (Q15858 whole entry, looked up): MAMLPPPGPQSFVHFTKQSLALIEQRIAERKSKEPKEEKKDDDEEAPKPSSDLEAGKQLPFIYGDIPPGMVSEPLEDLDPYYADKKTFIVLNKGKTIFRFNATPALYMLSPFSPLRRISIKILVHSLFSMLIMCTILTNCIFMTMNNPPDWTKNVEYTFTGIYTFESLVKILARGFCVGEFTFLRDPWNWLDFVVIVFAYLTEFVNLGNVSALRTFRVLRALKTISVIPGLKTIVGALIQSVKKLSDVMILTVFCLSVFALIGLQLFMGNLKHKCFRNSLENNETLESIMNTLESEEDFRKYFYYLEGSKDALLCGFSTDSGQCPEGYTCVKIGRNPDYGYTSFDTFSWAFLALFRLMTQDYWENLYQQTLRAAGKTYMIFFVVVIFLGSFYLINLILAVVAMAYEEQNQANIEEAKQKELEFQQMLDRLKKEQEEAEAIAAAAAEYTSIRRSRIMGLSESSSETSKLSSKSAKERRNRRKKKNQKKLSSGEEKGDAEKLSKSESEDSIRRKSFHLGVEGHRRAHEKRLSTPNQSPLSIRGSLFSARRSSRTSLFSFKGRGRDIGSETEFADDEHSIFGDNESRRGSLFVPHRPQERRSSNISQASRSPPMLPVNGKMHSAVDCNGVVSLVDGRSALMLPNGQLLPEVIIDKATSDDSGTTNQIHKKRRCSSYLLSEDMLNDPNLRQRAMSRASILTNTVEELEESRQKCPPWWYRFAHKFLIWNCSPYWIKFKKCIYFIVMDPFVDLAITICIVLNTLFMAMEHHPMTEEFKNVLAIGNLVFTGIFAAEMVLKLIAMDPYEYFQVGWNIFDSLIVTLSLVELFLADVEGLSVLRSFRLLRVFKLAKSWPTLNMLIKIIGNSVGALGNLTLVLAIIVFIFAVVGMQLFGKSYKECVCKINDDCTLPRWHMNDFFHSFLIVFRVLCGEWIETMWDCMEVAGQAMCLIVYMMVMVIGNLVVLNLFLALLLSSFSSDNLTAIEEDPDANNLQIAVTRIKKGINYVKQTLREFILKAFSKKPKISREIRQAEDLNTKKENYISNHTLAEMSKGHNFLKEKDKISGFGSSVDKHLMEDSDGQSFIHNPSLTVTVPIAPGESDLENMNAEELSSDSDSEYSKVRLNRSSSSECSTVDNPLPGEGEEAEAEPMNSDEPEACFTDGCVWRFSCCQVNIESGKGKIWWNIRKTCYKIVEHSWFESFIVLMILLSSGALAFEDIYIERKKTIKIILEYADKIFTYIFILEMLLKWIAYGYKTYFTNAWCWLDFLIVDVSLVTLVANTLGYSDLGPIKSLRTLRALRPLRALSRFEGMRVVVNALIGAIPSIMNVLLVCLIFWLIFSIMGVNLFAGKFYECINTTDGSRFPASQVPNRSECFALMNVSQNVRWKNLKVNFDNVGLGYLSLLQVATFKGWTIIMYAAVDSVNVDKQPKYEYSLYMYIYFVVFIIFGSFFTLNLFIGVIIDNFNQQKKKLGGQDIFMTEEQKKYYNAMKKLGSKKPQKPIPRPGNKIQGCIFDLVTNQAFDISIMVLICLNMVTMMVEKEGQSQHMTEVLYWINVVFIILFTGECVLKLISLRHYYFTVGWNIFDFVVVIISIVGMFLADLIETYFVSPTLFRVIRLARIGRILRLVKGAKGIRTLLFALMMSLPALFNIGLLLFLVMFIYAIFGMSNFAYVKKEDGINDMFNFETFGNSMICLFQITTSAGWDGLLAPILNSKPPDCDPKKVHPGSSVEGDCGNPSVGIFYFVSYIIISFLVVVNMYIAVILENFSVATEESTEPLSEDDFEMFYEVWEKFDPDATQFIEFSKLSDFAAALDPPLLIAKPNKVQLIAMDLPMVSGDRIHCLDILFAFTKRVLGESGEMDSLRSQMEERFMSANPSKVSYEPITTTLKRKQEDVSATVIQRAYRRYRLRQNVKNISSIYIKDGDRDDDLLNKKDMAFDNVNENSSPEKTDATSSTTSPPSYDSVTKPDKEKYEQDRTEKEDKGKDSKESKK
Target sequence in this assay (Q07699 whole entry partner, looked up): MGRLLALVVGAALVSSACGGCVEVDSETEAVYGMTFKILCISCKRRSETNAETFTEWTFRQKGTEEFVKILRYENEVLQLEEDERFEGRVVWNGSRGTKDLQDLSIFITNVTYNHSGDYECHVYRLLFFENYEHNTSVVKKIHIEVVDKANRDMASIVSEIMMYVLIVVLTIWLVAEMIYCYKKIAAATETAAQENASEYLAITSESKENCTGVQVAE

Compound	IC50 (hNav1.7 [1]) [nM]	IC50 (hNav1.7 [2]) [nM]
O=S(=O)(Nc1ccncn1)c1cc(O)c(N[C@H]2CC[C@H](c3cccc(C(F)(F)F)c3)C[C@@H]2N2CCCC2)cc1F [Example 46, 2-Fluoro-5-hydroxy-N-(pyrimidin-4-yl)-4-(((1S,2S,4S)-2-(pyrrolidin-1-yl)-4-(3-(trifluoromethyl)-phenyl)cyclohexyl)amino)benzenesulfonamide formate]	1.9	24.5
O=S(=O)(Nc1ccncn1)c1cc(F)c(N[C@H]2CC[C@H](c3cccc(C(F)(F)F)c3)C[C@@H]2N2CCCC2)cc1F [Example 23, 2,5-difluoro-N-(pyrimidin-4-yl)-4-(((1S,2S,4S)-2-(pyrrolidin-1-yl)-4-(3-(trifluoromethyl)-phenyl)cyclohexyl)amino)benzenesulfonamide formate]	1.63	1.21
CN(C)[C@@H]1C[C@](O)(c2cccc(C(F)(F)F)c2)CC[C@H]1Nc1cc(F)c(S(=O)(=O)Nc2ccncn2)cc1Cl (single isomer, unassigned) [Example 36, formate]	144	309
CN(C)[C@H]1C[C@@H](c2cc(F)cc(C(F)(F)F)c2)CC[C@@H]1Nc1cc(F)c(S(=O)(=O)Nc2ccncn2)cc1Cl [Example 15, 5-Chloro-4-[[(1S,2S,4S)-2-(dimethylamino)-4-[3-fluoro-5-(trifluoromethyl)phenyl]-cyclohexyl]amino]-2-fluoro-N-pyrimidin-4-yl-benzenesulfonamide formic acid]	0.61	0.886
CN(C)[C@H]1C[C@](O)(c2cccc(C(F)(F)F)c2)CC[C@@H]1Nc1cc(F)c(S(=O)(=O)Nc2ccncn2)cc1Cl (single isomer, unassigned) [Example 37]	371	≥ 2000
CN(C)[C@H]1C[C@@H](c2cccc(OC(F)(F)F)c2)CC[C@@H]1Nc1cc(F)c(S(=O)(=O)Nc2ccncn2)cc1F [Example 19, 4-(((1S,2S,4S)-2-(dimethylamino)-4-(3-(trifluoromethoxy)phenyl)cyclohexyl)amino)-2,5-difluoro-N-(pyrimidin-4-yl)benzenesulfonamide]	0.673	1.36
CN(C)[C@H]1C[C@@H](c2cccc(C(F)(F)F)c2)CC[C@@H]1n1c(=O)oc2cc(S(=O)(=O)Nc3ccncn3)c(F)cc21 [Example 3, 3-((1S,2S,4S)-2-(Dimethylamino)-4-(3-(trifluoromethyl)phenyl)cyclohexyl)-5-fluoro-2-oxo-N-(pyrimidin-4-yl)-2,3-dihydrobenzo[d]oxazole-6-sulfonamide formate]	26.2	83.1
CN1CC[C@@H](C(=O)N(C)[C@H]2C[C@@H](c3cccc(C(F)(F)F)c3)CC[C@@H]2Nc2cc(F)c(S(=O)(=O)Nc3ccncn3)cc2Cl)C1 [Example 34, (R)—N-((1S,2S,5S)-2-((2-Chloro-5-fluoro-4-(N-(pyrimidin-4-yl)sulfamoyl)phenyl)amino)-5-(3-(trifluoromethyl)phenyl)cyclohexyl)-N,1-dimethylpyrrolidine-3-carboxamide]	0.672	2.6
CN(C)[C@H]1C[C@@H](c2cccc(C(F)(F)F)c2)CC[C@@H]1N1CCOc2cc(S(=O)(=O)Nc3ccncn3)c(F)cc21 [Example 2, 4-((1S,2S,4S)-2-(Dimethylamino)-4-(3-(trifluoromethyl)phenyl)cyclohexyl)-6-fluoro-N-(pyrimidin-4-yl)-3,4-dihydro-2H-benzo[b][1,4]oxazine-7-sulfonamide formate]	1.01	0.686
CN(C)CC(=O)N(C)[C@H]1C[C@@H](c2cccc(C(F)(F)F)c2)CC[C@@H]1Nc1cc(F)c(S(=O)(=O)Nc2ccncn2)cc1Cl [Example 29, N-((1S,2S,5S)-2-((2-chloro-5-fluoro-4-(N-(pyrimidin-4-yl)sulfamoyl)phenyl)amino)-5-(3-(trifluoromethyl)phenyl)cyclohexyl)-2-(dimethylamino)-N-methylacetamide formate]	2.25	3.56
CN1CC(N(C)[C@H]2C[C@@H](c3cccc(C(F)(F)F)c3)CC[C@@H]2Nc2cc(F)c(S(=O)(=O)Nc3ccncn3)cc2Cl)C1 [Example 45, 5-chloro-2-fluoro-4-(((1S,2S,4S)-2-(methyl(1-methylazetidin-3-yl)amino)-4-(3-(trifluoromethyl)phenyl)cyclohexyl)amino)-N-(pyrimidin-4-yl)benzenesulfonamide]	0.241	0.399
5-Chloro-4-(((1S,3R,4R,6R)-7,7-dichloro-4-(dimethylamino)-6-(3-(trifluoromethyl)-phenyl)bicyclo[4.1.0]heptan-3-yl)amino)-2-fluoro-N-(pyrimidin-4-yl)benzenesulfonamide [Example 53]	1.86	46.2
CN(C)[C@H]1C[C@@H](c2cccc(C(F)(F)F)c2)CC[C@@H]1N1C(=O)CCc2cc(S(=O)(=O)Nc3ccncn3)c(F)cc21 [Example 55, 1-((1S,2S,4S)-2-(Dimethylamino)-4-(3-(trifluoromethyl)phenyl)cyclohexyl)-7-fluoro-2-oxo-N-(pyrimidin-4-yl)-1,2,3,4-tetrahydroquinoline-6-sulfonamide]	2.68	6.73
CN(C)[C@H]1C[C@@H](c2cccc(C(F)(F)F)c2)CC[C@@H]1Oc1cc(F)c(S(=O)(=O)Nc2ccncn2)cc1F [Example 48, 4-(((1S,2S,4S)-2-(dimethylamino)-4-(3-(trifluoromethyl)phenyl)cyclohexyl)oxy)-2,5-difluoro-N-(pyrimidin-4-yl)benzenesulfonamide formate]	3.34	37.7

Further lines, results first:

IC50 (hNav1.7 [1]) [nM]	IC50 (hNav1.7 [2]) [nM]	Compound
23.1	274	CN(C)[C@H]1CN(c2cc(C(F)(F)F)ccn2)CC[C@@H]1Nc1ccc(S(=O)(=O)Nc2ccncn2)c(F)c1 [Example 72, 4-(((3S,4S)-3-(Dimethylamino)-1-(4-(trifluoromethyl)pyridin-2-yl)piperidin-4-yl)amino)-2-fluoro-N-(pyrimidin-4-yl)benzenesulfonamide formate]
0.709	11.2	CN[C@H]1C[C@@H](c2cccc(C(F)(F)F)c2)CC[C@@H]1Oc1cc(F)c(S(=O)(=O)Nc2ccncn2)cc1Cl [Example 63, 5-chloro-2-fluoro-4-(((1S,2S,4S)-2-(methylamino)-4-(3-(trifluoromethyl)phenyl)-cyclohexyl)oxy)-N-(pyrimidin-4-yl)benzenesulfonamide]
0.554	1.37	O=S(=O)(Nc1ccncn1)c1cc(Cl)c(O[C@H]2CC[C@H](c3cccc(OC(F)(F)F)c3)C[C@@H]2N2CCCC2)cc1F [Example 64, 5-chloro-2-fluoro-N-(pyrimidin-4-yl)-4-(((1S,2S,4S)-2-(pyrrolidin-1-yl)-4-(3-(trifluoromethoxy)-phenyl)cyclohexyl)oxy)benzenesulfonamide formate]
1.62	32.6	CN(C)[C@H]1C[C@@H](c2cccc(OC(F)(F)F)c2)CC[C@@H]1Oc1cc(F)c(S(=O)(=O)Nc2ccncn2)cc1F [Example 59, 4-(((1S,2S,4S)-2-(dimethylamino)-4-(3-(trifluoromethoxy)phenyl)cyclohexyl)oxy)-2,5-difluoro-N-(pyrimidin-4-yl)benzenesulfonamide formate]
0.528	1.92	CN(C)[C@H]1C[C@@H](c2cccc(C(F)(F)F)c2)CC[C@@H]1Oc1cc(F)c(S(=O)(=O)Nc2ccncn2)cc1Br [Example 56, 5-Bromo-4-(((1S,2S,4S)-2-(dimethylamino)-4-(3-(trifluoromethyl)phenyl)cyclohexyl)oxy)-2-fluoro-N-(pyrimidin-4-yl)benzenesulfonamide]
0.173	0.474	CNCCN(C)[C@H]1C[C@@H](c2cccc(C(F)(F)F)c2)CC[C@@H]1Oc1cc(F)c(S(=O)(=O)Nc2ccncn2)cc1Cl [Example 69, 5-chloro-2-fluoro-4-(((1S,2S,4S)-2-(methyl(2-(methylamino)ethyl)amino)-4-(3-(trifluoromethyl)phenyl)cyclohexyl)oxy)-N-(pyrimidin-4-yl)benzenesulfonamide formate]
1.2	6.13	CN(C)[C@H]1C[C@@H](c2cccc(C(C)(F)F)c2)CC[C@@H]1Oc1cc(F)c(S(=O)(=O)Nc2ccncn2)cc1Cl [Example 91, 5-chloro-4-(((1S,2S,4S)-4-(3-(1,1-difluoroethyl)phenyl)-2-(dimethylamino)cyclohexyl)oxy)-2-fluoro-N-(pyrimidin-4-yl)benzenesulfonamide]
0.355	1.57	CN(C)[C@H]1C[C@@H](c2cc(Cl)cc(Cl)c2)CC[C@@H]1Oc1cc(F)c(S(=O)(=O)Nc2ccncn2)cc1Cl [Example 82, 5-chloro-4-(((1S,2S,4S)-4-(3,5-dichlorophenyl)-2-(dimethylamino)cyclohexyl)oxy)-2-fluoro-N-(pyrimidin-4-yl)benzenesulfonamide formate]
0.325	3.83	CN(C)[C@H]1C[C@@H](c2ccc(Cl)c(Cl)c2)CC[C@@H]1Oc1cc(F)c(S(=O)(=O)Nc2ccncn2)cc1Cl [Example 67, 5-chloro-4-(((1S,2S,4S)-4-(3,4-dichlorophenyl)-2-(dimethylamino)cyclohexyl)oxy)-2-fluoro-N-(pyrimidin-4-yl)benzenesulfonamide formate]
